This note sets out measurements from ChEMBL document CHEMBL4823243, “Synergistic induction of apoptosis in resistant head and neck carcinoma and leukemia by alkoxyamide-based histone deacetylase inhibitors” (Eur J Med Chem, 2021).

Assay [1] concerns Cal27CisR. Kind of assay: Induction of apoptosis in human Cal27CisR cells assessed as caspase 3 activation at 0.3 uM pretreated for 24 hrs followed by cisplatin treatment and further incubated for 18 hrs by Caspase3/7 detection reagent based assay. Format: functional, cell-based. The note with it: time 42.0 hrs.
The target of assay [2] is T1, Histone deacetylase (Homo sapiens) (UniProt Q13547+O15379+Q9UBN7+Q92769+Q9UQL6+Q8WUI4+Q9BY41+Q96DB2+P56524+Q9UKV0+Q969S8). Kind of assay: Inhibition of HDAC in human CAL-27 cells assessed as potentiation of cisplatin-induced cytotoxicity by measuring fold reduction in cisplatin IC50 at 0.3 to 0.5 uM pretreated for 48 hrs followed by cisplatin addition and measured after 72 hrs by MTT assay relative to cisplatin alone. The note with it: dose 0.3-0.5 µM, time 120.0 hrs. It is filed as cell-based. (In general: Formazan colour is commonly taken as a measure of viable cells.)

Assay [3] has as its target T1, Histone deacetylase (Homo sapiens). The assay is described as follows: Inhibition of HDAC in human Cal27CisR cells assessed as combination index at 0.1 uM measured in presence of 50 uM cDDP by MTT-based Chou-Talalay method. Format: cell-based.
Assay [4] concerns CAL-27. Kind of assay: Induction of apoptosis in human CAL-27 cells assessed as caspase 3 activation at 0.3 uM pretreated for 24 hrs followed by cisplatin treatment and further incubated for 18 hrs by Caspase3/7 detection reagent based assay. The following applies: time 42.0 hrs. Format: functional, cell-based.
The target in assay [5] is Histone deacetylase. The assay is described as follows: Inhibition of HDAC in human CAL-27 cells using Boc-Lys (acetyl)-AMC as substrate preincubated for 18 hrs followed by susbtrate addition and measured after 3 hrs by fluorescence microplate reader assay. Format: cell-based.
The target of assay [6] is T1, Histone deacetylase (Homo sapiens). Kind of assay: Inhibition of HDAC in human CAL-27 cells assessed as combination index at 0.4 uM measured in presence of 10 uM cDDP by MTT-based Chou-Talalay method. It is filed as cell-based.
Assay [7] has the same target. Kind of assay: Inhibition of HDAC in human Cal27CisR cells assessed as combination index at 0.5 uM measured in presence of 20 uM cDDP by MTT-based Chou-Talalay method. It is filed as cell-based.
The target is the same in assay [8]. Kind of assay: Inhibition of HDAC in human Cal27CisR cells assessed as combination index at 0.3 uM measured in presence of 20 uM cDDP by MTT-based Chou-Talalay method. Format: cell-based.
For assay [9] the target is unchanged. Kind of assay: Inhibition of HDAC in human CAL-27 cells assessed as combination index at 0.35 uM measured in presence of 10 uM cDDP by MTT-based Chou-Talalay method. It is filed as cell-based.
The target is the same in assay [10]. The assay is described as follows: Inhibition of HDAC in human Cal27CisR cells assessed as combination index at 0.3 uM measured in presence of 50 uM cDDP by MTT-based Chou-Talalay method. Format: cell-based.
Assay [11] has the same target. Kind of assay: Inhibition of HDAC in human Cal27CisR cells assessed as combination index at 0.6 uM measured in presence of 50 uM cDDP by MTT-based Chou-Talalay method. Format: cell-based.
Assay [12] has the same target. The assay is described as follows: Inhibition of HDAC in human Cal27CisR cells assessed as combination index at 0.6 uM measured in presence of 10 uM cDDP by MTT-based Chou-Talalay method. It is filed as cell-based.
Assay [13] shares this target. Kind of assay: Inhibition of HDAC in human CAL-27 cells assessed as combination index at 0.3 uM measured in presence of 5 uM cDDP by MTT-based Chou-Talalay method. It is filed as cell-based.
Assay [14] shares this target. The assay is described as follows: Inhibition of HDAC in human CAL-27 cells assessed as combination index at 0.4 uM measured in presence of 5 uM cDDP by MTT-based Chou-Talalay method. Format: cell-based.
The target is the same in assay [15]. The assay is described as follows: Inhibition of HDAC in human Cal27CisR cells assessed as combination index at 0.4 uM measured in presence of 10 uM cDDP by MTT-based Chou-Talalay method. Format: cell-based.
For assay [16] the target is unchanged. Kind of assay: Inhibition of HDAC in human CAL-27 cells assessed as combination index at 0.2 uM measured in presence of 5 uM cDDP by MTT-based Chou-Talalay method. It is filed as cell-based.
Assay [17] has the same target. Kind of assay: Inhibition of HDAC in human Cal27CisR cells assessed as potentiation of cisplatin-induced cytotoxicity by measuring fold reduction in cisplatin IC50 at 0.3 to 0.5 uM pretreated for 48 hrs followed by cisplatin addition and measured after 72 hrs by MTT assay relative to cisplatin alone. It is filed as cell-based. The following applies: dose 0.3-0.5 µM, time 120.0 hrs.

Assay [18] has the same target. Kind of assay: Inhibition of HDAC in human Cal27CisR cells assessed as combination index at 0.4 uM measured in presence of 50 uM cDDP by MTT-based Chou-Talalay method. It is filed as cell-based.
For assay [19] the target is unchanged. The assay is described as follows: Inhibition of HDAC in human CAL-27 cells assessed as combination index at 0.4 uM measured in presence of 2 uM cDDP by MTT-based Chou-Talalay method. It is filed as cell-based.
The target is the same in assay [20]. The assay is described as follows: Inhibition of HDAC in human Cal27CisR cells assessed as combination index at 0.2 uM measured in presence of 10 uM cDDP by MTT-based Chou-Talalay method. It is filed as cell-based.
Assay [21] has as its system Cal27CisR. The assay is described as follows: Induction of DNA damage human Cal27CisR cells assessed as upregulation of gamma H2AX in presence cisplatin measured by Western blot analysis. It is filed as functional.
Assay [22] has as its target T1, Histone deacetylase (Homo sapiens). Kind of assay: Inhibition of HDAC in human CAL-27 cells assessed as combination index at 0.1 uM measured in presence of 10 uM cDDP by MTT-based Chou-Talalay method. It is filed as cell-based.
For assay [23], the target named is Histone deacetylase. Kind of assay: Inhibition of HDAC in human CAL-27 cells assessed as potentiation of cisplatin-induced cytotoxicity by measuring cisplatin IC50 at 0.3 to 0.5 uM pretreated for 48 hrs followed by cisplatin addition and measured after 72 hrs by MTT assay (reference value: 3.57 uM). It is filed as cell-based.
Assay [24] deals with T1, Histone deacetylase (Homo sapiens). Kind of assay: Inhibition of HDAC in human CAL-27 cells assessed as combination index at 0.25 uM measured in presence of 10 uM cDDP by MTT-based Chou-Talalay method. Format: cell-based.
For assay [25], the system named is CAL-27. The assay is described as follows: Induction of apoptosis in cisplatin resistant human CAL-27 cells assessed as caspase 3 activation at 0.3 uM pretreated for 24 hrs followed by cisplatin treatment and further incubated for 18 hrs by Caspase3/7 detection reagent based assay. Format: functional, cell-based. The note with it: time 42.0 hrs.
In assay [26] the target is T1, Histone deacetylase (Homo sapiens). Kind of assay: Inhibition of HDAC in human CAL-27 cells assessed as combination index at 0.3 uM measured in presence of 2 uM cDDP by MTT-based Chou-Talalay method. It is filed as cell-based.
The target is the same in assay [27]. The assay is described as follows: Inhibition of HDAC in human Cal27CisR cells assessed as combination index at 0.1 uM measured in presence of 20 uM cDDP by MTT-based Chou-Talalay method. Format: cell-based.
For assay [28] the target is unchanged. The assay is described as follows: Inhibition of HDAC in human Cal27CisR cells assessed as combination index at 0.6 uM measured in presence of 20 uM cDDP by MTT-based Chou-Talalay method. It is filed as cell-based.
For assay [29], the target named is Histone deacetylase. The assay is described as follows: Inhibition of HDAC in human Cal27CisR cells assessed as potentiation of cisplatin-induced cytotoxicity by measuring cisplatin IC50 at 0.3 to 0.5 uM pretreated for 48 hrs followed by cisplatin addition and measured after 72 hrs by MTT assay (reference value: 3.57 uM). It is filed as cell-based.
The target of assay [30] is T1, Histone deacetylase (Homo sapiens). Kind of assay: Inhibition of HDAC in human Cal27CisR cells assessed as combination index at 0.3 uM measured in presence of 10 uM cDDP by MTT-based Chou-Talalay method. Format: cell-based.
Assay [31] in a line: Inhibition of Class 1/2b HDAC in human HL-60 cells by HDAC-Glo assay. It is filed as cell-based.

Calls of active or inactive are those of the source. No cut-off for these calls is given here.

For orientation: IC50 means the concentration needed to halve the response being measured. For the compound `O=C(CCCCCONC(=O)c1cc2ccccc2[nH]1)NO`, the outcome in the assay with Cal27CisR [1], with CAL-27 [4], in the assay with Cal27CisR [21] and in the assay on CAL-27 [25] was Active. The Ratio IC50 was found to be 2.73 in [2] and 7.36 in assay [17]. Moreover, the CI in [3] is 0.36; in assay [6], 0.02; in assay [7] it was 0.21; in assay [8] it was 0.29; in assay [9], 0.02; in assay [10], 0.47. Also, the CI in assay [11] came to 0.41; in assay [12], 0.19; in [13], 0.06; in [14] it was 0.04; in assay [15], 0.59; in [16] it was 0.09. For the same compound, the CI in assay [18] stood at 0.47; in [19], 0.14; in assay [20] it was 2.72; in assay [22], 0.22; in assay [24], 0.03; in [26], 0.35. The CI in assay [27] is 2.3; in assay [28], 0.24; in [30], 1.17. The IC50 was 0.12 µM against Histone deacetylase [5], 1.31 µM on Histone deacetylase [23] and 6.59 µM at Histone deacetylase [29].
On to `O=C(CCCCCONC(=O)c1ccc2ccccc2n1)NO`, for which the result in the assay with Cal27CisR [1], in the assay on CAL-27 [4], in the assay on Cal27CisR [21] and with CAL-27 [25] was Active. Moreover, the Ratio IC50 in assay [2] amounted to 3.2; in assay [17] it was 13.2. For the same compound, the CI was found to be 0.32 in assay [3]; 0.02 in assay [6]; 0.33 in assay [7]; 0.37 in assay [8]; 0.02 in [9]; 0.44 in assay [10]. Also, the CI in assay [11] turned out to be 0.38; in [12] it was 0.1; in assay [13] it was 0.06; in assay [14] it was 0.04; in assay [15] it was 0.11; in assay [16], 1.11. Moreover, the CI in [18] stood at 0.47; in assay [19], 0.48; in assay [20], 0.27; in [22] it was 0.22; in assay [24], 0.03; in assay [26] it was 0.88. Also, the CI in assay [27] was 5.25; in [28], 0.45; in [30] it was 0.16. In addition, the 50% inhibitory concentration (IC50) against Histone deacetylase [5] turned out to be 0.18 µM; in [31], 73.2 nM; at Histone deacetylase [23], 1.12 µM; at Histone deacetylase [29], 3.67 µM.
As to `O=C(CCCCCONC(=O)c1nccc2ccccc12)NO`, the IC50 amounted to 1.5 µM on Histone deacetylase [5] and 85.1 nM in [31]. Besides, the outcome in the assay with Cal27CisR [21] was Active.
